Laboratory results reported in patent US12617779B2, “Self degradation-type CDK9 inhibitor prodrug and liposome encapsulating same” (Sumitomo Pharma Co., Ltd., priority 2021, dated 2026).

Assay: Evaluation of conversion rate to active form in buffer solution (Experimental Example 1)
Type: physicochemical
Details: for Conversion to Alvocidib at pH 7.4: pH 7.4, 37° C., up to 3 hours
Protocol: For Examples 1 to 16 and Comparative Examples 1 to 14, the attrition rate of the test compound and the conversion rate of the test compound to Alvocidib in a buffer solution were calculated by the following method.
Examples 1 to 16 and Comparative Examples 1 to 14 were each left in buffer solutions adjusted to pH 5.0, 5.5, 6.0, 6.5, 7.0 and 7.4, respectively, at a concentration of 25 umol/L at 37° C. After 0, 0.5, 1, 2 and 3 hours, the residual rates of the compounds of Examples […] and the production rate of Alvocidib were determined by HPLC.
The buffer solutions used at each pH are as follows. • pH 5.0: 50 mM citrate buffer solution (pH 5.0) • pH 5.5: 50 mM citrate buffer solution (pH 5.5) • pH 6.0: 50 mM phosphate buffer solution (pH 6.0) • pH 6.5: 50 mM phosphate buffer solution (pH 6.5) • pH 7.0: 50 mM phosphate buffer solution (pH 7.0) • pH 7.4: 50 mM phosphate buffer solution (pH 7.4)
The measurement conditions for HPLC are as follows.

CNC(=O)O[C@@H]1CN(C)CC[C@@H]1c1c(O)cc(O)c2c(=O)cc(-c3ccccc3Cl)oc12 [Comparative Example 5, reference compound]
93.4%: Residual rate (pH5.0, 1 hr) | Residual rate (pH7.0, 0.5 hr) | Residual rate (pH7.4, 2 hr) | Residual rate (pH7.4, 3 hr)
slowly converted to Alvocidib: Conversion to Alvocidib at pH 7.4
93.5%: Residual rate (pH5.0, 0.5 hr) | Residual rate (pH6.0, 0 hr) | Residual rate (pH6.0, 1 hr) | Residual rate (pH6.5, 0 hr) | Residual rate (pH6.5, 2 hr) | Residual rate (pH6.5, 3 hr)
0.0%: Production rate of Alvocidib (pH5.0, 0 hr) | Production rate of Alvocidib (pH5.0, 0.5 hr) | Production rate of Alvocidib (pH5.0, 1 hr) | Production rate of Alvocidib (pH5.0, 2 hr) | Production rate of Alvocidib (pH5.0, 3 hr) | Production rate of Alvocidib (pH5.5, 0 hr) | Production rate of Alvocidib (pH5.5, 0.5 hr) | Production rate of Alvocidib (pH5.5, 1 hr) | Production rate of Alvocidib (pH5.5, 2 hr) | Production rate of Alvocidib (pH5.5, 3 hr) | Production rate of Alvocidib (pH6.0, 0 hr) | Production rate of Alvocidib (pH6.0, 0.5 hr) | Production rate of Alvocidib (pH6.0, 1 hr) | Production rate of Alvocidib (pH6.0, 2 hr) | Production rate of Alvocidib (pH6.0, 3 hr) | Production rate of Alvocidib (pH6.5, 0 hr) | Production rate of Alvocidib (pH6.5, 0.5 hr) | Production rate of Alvocidib (pH6.5, 1 hr) | Production rate of Alvocidib (pH6.5, 2 hr) | Production rate of Alvocidib (pH6.5, 3 hr) | Production rate of Alvocidib (pH7.0, 0 hr) | Production rate of Alvocidib (pH7.0, 0.5 hr) | Production rate of Alvocidib (pH7.0, 1 hr) | Production rate of Alvocidib (pH7.0, 2 hr) | Production rate of Alvocidib (pH7.0, 3 hr) | Production rate of Alvocidib (pH7.4, 0 hr) | Production rate of Alvocidib (pH7.4, 0.5 hr) | Production rate of Alvocidib (pH7.4, 1 hr) | Production rate of Alvocidib (pH7.4, 2 hr) | Production rate of Alvocidib (pH7.4, 3 hr)
93.8%: Residual rate (pH5.5, 0.5 hr) | Residual rate (pH5.5, 1 hr) | Residual rate (pH7.0, 1 hr)
94.0%: Residual rate (pH5.5, 2 hr) | Residual rate (pH6.0, 0.5 hr) | Residual rate (pH6.0, 3 hr)
93.9%: Residual rate (pH5.0, 0 hr) | Residual rate (pH5.0, 2 hr) | Residual rate (pH5.0, 3 hr) | Residual rate (pH5.5, 0 hr) | Residual rate (pH6.0, 2 hr) | Residual rate (pH6.5, 0.5 hr) | Residual rate (pH7.0, 0 hr) | Residual rate (pH7.0, 2 hr) | Residual rate (pH7.4, 0.5 hr) | Residual rate (pH7.4, 1 hr)
93.3%: Residual rate (pH7.0, 3 hr) | Residual rate (pH7.4, 0 hr)
93.6%: Residual rate (pH5.5, 3 hr) | Residual rate (pH6.5, 1 hr)

CCCCCCC(=O)O[C@@H]1CN(C)CC[C@@H]1c1c(O)cc(O)c2c(=O)cc(-c3ccccc3Cl)oc12 [Comparative Example 11, reference compound]
1.3%: Production rate of Alvocidib (pH7.4, 1 hr)
slowly converted to Alvocidib: Conversion to Alvocidib at pH 7.4
92.3%: Residual rate (pH7.4, 0.5 hr)
91.3%: Residual rate (pH7.4, 2 hr)
1.5%: Production rate of Alvocidib (pH7.4, 2 hr)
91.8%: Residual rate (pH7.4, 1 hr)
1.2%: Production rate of Alvocidib (pH7.4, 0.5 hr)
1.0%: Production rate of Alvocidib (pH7.4, 0 hr)
92.9%: Residual rate (pH7.4, 0 hr)
